# Values joined by “and” are separate entries in the source; they are usually repeats but may differ in a detail not shown here. Equal entries are not always repeated. Non-standard residues stand in square brackets, D forms with d. No end group written: not given here.
# Key:
# [1] = system: Dr2b restricted human T cell clones reactive to MBP; assay: Human T cell proliferation, Dr2b restricted clones; type: cell-based
# Method: Human T cells reactive to MBP (83-99) may alternatively be used to measure the ability of the peptide analog to inhibit proliferation of T cells induced by native MBP (83-99) peptide. MBP-specific T cells may be obtained as previously described by Martin et al., J. Immunol. 148:1359-1366, 1992. Briefly, T cell lines are established by culture of human T cells with irradiated, DR-matched peripheral blood cells in MEM supplemented with 2 mM L-glutamine, 50 μg/ml gentamicin, penicillin and streptomycin, 100 U/ml rIL-2, and 10% human AB negative serum. Proliferation of these T cell lines is stimulated by culturing a clone with varying concentration (1.1-30 μM) of native […] peptide, 50 μM of the peptide analog or SWM peptide, in the presence of irradiated, DR matched peripheral blood cells, following incubation for approximately 60 hours, the cells are pulsed with ^3H-thymidine for 12 hours and harvested. The amount of incorporated ^3H-thymidine is measured.
# The ability of the peptide analogs NBI-5719, 5748, 5765, 5788 and 5789 (SEQ ID NOs: 4-8 respectively) to affect human T cell proliferation was assessed. A constant amount of peptide analog or the control peptide SWM (50 μM) was cultured with varying concentrations of native MBP(83-99) peptide (1.1-30 μM) in the presence of irradiated, DR matched peripheral blood cells and T cell clones derived from various MS patients. Human T cells (1×10^6) were cultured with DR matched, irradiated peripheral blood cells (PBL, 5×10^6) in medium containing IMDM supplemented with 3 μM MBP83-99, 2 mM L-glutamine, 50 μg/ml gentamicin penicillin/streptomycin, 100 U/ml r1L-2 and 10% human AB-negative serum. Cells were cultured for approximately 60 hours, pulsed with tritiated thymidine for 12 hours, and harvested. The amount of tritiated thymidine incorporated was measured, and the data represented as the mean plus or minus the standard error of the mean of replicate samples.
# The ability of the peptide analog to inhibit the proliferative response of MBP-reactive T cells isolated from Dr2b (DrB1* 1501) individuals was determined. A constant amount of NBI-5788 (50 μM) was cultured with varying concentrations of native peptide (1.1-30 μM) in the presence of irradiated, DR matched peripheral blood cells and T cell clones derived from various MS patients.
# [2] = system: peripheral blood cells of MS patients; assay: Frequency of APL-responsive peripheral blood T cells after dosing of MS patients (split-well); type: in vivo, human
# Method: Patients received either 10 or 20 mg of APL NBI-5788 (weekly for four weeks). Peripheral blood cells were collected from four patients approximately one year after dosing, as well as from 14 MS patients who had not received the APL and from two normal, healthy volunteers. The frequency of response to the peptide was determined using the split-well technique. Cells were seeded in 48 wells/plate, as well as 12 control wells without antigenic stimulation, at a density of 1×10^5 cells/well. Cells were set up in IMDM+10% human plasma pool+penicillin/streptomycin 100 U/ml+gentamycin 50 μg/ml +2 mM L-glutamine (or complete media, CM). Peptide antigen (25 μg) was added and then included for no more than one feeding with media. At day 12, the medium was changed to CM without IL-2. Two days later, the split-wells were established. The wells were resuspended with a multichannel pipetor, 100 μl of the cell suspension was transferred to adjacent wells on a new plate (daughter plate) and mixed with 100 μl of media containing 1×10^5 antigen presenting cells (peripheral blood lymphocytes, PBL irradiated with 3000 R in CM with or without antigen; 25 μg/ml). After 48 hours of culturing, 100 μl of supernatant was removed from the daughter plate for later cytokine determination and stored at -70° C.
# For the proliferation assay, ^3H-thymidine (0.5 μCi) was added to the daughter plate and the plates reincubated for an additional 8 hours. The wells were then harvested onto filter mats and the level of ^3H-thymidine incorporation determined using beta scintillation. Counts greater than three-fold over background were considered positive.
# [3] = system: NBI-5788-reactive or MBP-reactive T cell lines from MS patients; assay: Cross-reactivity of T cell lines (TCL) from MS patients, 3H-thymidine proliferation; type: cell-based, human
# Method: To evaluate the degree of NBI-5788-specific reactivity induced by NBI-5788 treatment, we determined whether NBI-5788-reactive T cell lines generated from untreated or NBI-5788-treated patients cross-reacted with whole MBP or MBP peptide 83-99. T cell lines were generated from positive cultures in the frequency analysis by an additional cycle of co-culture with antigen. Specificity of positive lines was tested by culturing 2×10^4 T cells/well in triplicate with whole MBP, MBP83-99, NBI-5788 or medium alone in the presence of 10^5 APCs in a final volume of 200 μl/well. Two days later supernatants were pooled from replicate wells and frozen at −80° C. Wells were then pulsed with [^3H]-thymidine (1 μCi/well) for the final 18 hours of culture.
# [4] = patient MS-1, dose 20 mg, TCL 4
substance,measurement,setting,value
"MBP(83-99) (83E>a, 84N>K, 89F>L, and 91K>A) ([dA]KPVVHLFANIVTPRTP) [NBI-5788]",inhibition of response of Dr2b T cell clones to MBP peptide,"[1]; 50 μM, three different T cell lines, FIGS. 16-18",inhibited the ability of the T cell clones to respond to MBP peptide in a concentration dependent fashion
same,inhibition of MBP-dependent proliferation of clone 5F6,"[1]; Dr2b restricted clone 5F6, 50 μM, FIG. 19",inhibited the MBP-dependent proliferation in a concentration dependent fashion
same,Percent Reactivity (frequency of APL NBI-5788-reactive T cells),[2]; 10 mg (n = 1),23%
same,"frequency of APL responsive wells (SI>3), individual patient","[2]; 10 mg weekly for four weeks, about one year after dosing",23%
same,Percent Reactivity (frequency of APL NBI-5788-reactive T cells),[2]; 20 mg (n = 3),39 ± 18%
same,"frequency of APL responsive wells (SI>3), individual patients","[2]; 20 mg weekly for four weeks, about one year after dosing, listed as APL",11% and 32% and 72%
same,APL specific lines from treated patients cross reacting with native MBP (83-99),"[2]; human, in vivo",6/31
same,APL specific lines from treated patients reacting with whole MBP,"[2]; human, in vivo",4/31
same,whole MBP-reactive TCL from treated patients cross-reacting with NBI-5788,[3]; 1 of 35 TCL,2.9%
same,NBI-5788-reactive TCL from treated patients cross-reacting with whole MBP,[3]; 1 of 43 TCL,2.3%
same,NBI-5788-reactive TCL from treated patients cross-reacting with both MBP83-99 and whole MBP,[3]; 2 of 43 TCL,4.7%
same,whole MBP-reactive TCL from treated patients cross-reacting with MBP83-99 and NBI-5788,[3]; 3 of 35 TCL,8.6%
same,whole MBP-reactive TCL from treated patients cross-reacting with MBP-83-99,[3]; 6 of 35 TCL,17.1%
same,NBI-5788-reactive TCL from treated patients cross-reacting with MBP83-99,[3]; 12 of 43 TCL,27.9%
same,proliferative response of MBP-reactive TCL to antigen,"[3]; patient MS-1, dose 20 mg, TCL 2","6,090 ± 102"
same,proliferative response of MBP-reactive TCL to antigen,[3]; [4],"4,164 ± 123"
same,proliferative response of NBI-5788-reactive TCL to antigen,[3]; [4],"4,112 ± 349"
same,proliferative response of MBP-reactive TCL to antigen,"[3]; patient MS-1, dose 20 mg, TCL 5","3,115 ± 56"
same,proliferative response of MBP-reactive TCL to antigen,"[3]; patient MS-1, dose 20 mg, TCL 10","2,794 ± 152"
same,proliferative response of MBP-reactive TCL to antigen,"[3]; patient MS-1, dose 20 mg, TCL 14","15,780 ± 214"
same,proliferative response of MBP-reactive TCL to antigen,"[3]; patient MS-1, dose 20 mg, TCL 26","2,559 ± 74"
same,proliferative response of NBI-5788-reactive TCL to antigen,"[3]; patient MS-1, dose 20 mg, TCL 36","18,259 ± 2011"
same,proliferative response of MBP-reactive TCL to antigen,"[3]; patient MS-1, dose 20 mg, TCL 45","2,559 ± 637"
same,proliferative response of MBP-reactive TCL to antigen,"[3]; patient MS-2, dose 20 mg, TCL 14","2,566 ± 421"
same,proliferative response of MBP-reactive TCL to antigen,"[3]; patient MS-3, Pretreat., TCL 9","6,468 ± 586"
same,proliferative response of NBI-5788-reactive TCL to antigen,"[3]; patient MS-3, dose 20 mg, TCL 2","19,315 ± 1,310"
same,proliferative response of NBI-5788-reactive TCL to antigen,"[3]; patient MS-3, dose 20 mg, TCL 4","50,630 ± 11,709"
same,proliferative response of NBI-5788-reactive TCL to antigen,"[3]; patient MS-3, dose 20 mg, TCL 18","10,308 ± 1,283"
same,proliferative response of NBI-5788-reactive TCL to antigen,"[3]; patient MS-3, dose 20 mg, TCL 30","48,278 ± 1,070"
same,proliferative response of MBP-reactive TCL to antigen,"[3]; patient MS-4, dose 20 mg, TCL 7","7,492 ± 716"
same,proliferative response of NBI-5788-reactive TCL to antigen,"[3]; patient MS-4, dose 20 mg, TCL 18","26,017 ± 802"
same,proliferative response of NBI-5788-reactive TCL to antigen,"[3]; patient MS-5, dose 20 mg, TCL 15","32,597 ± 1,856"
same,proliferative response of NBI-5788-reactive TCL to antigen,"[3]; patient MS-5, dose 20 mg, TCL 39","24,326 ± 3,724"
same,proliferative response of NBI-5788-reactive TCL to antigen,"[3]; patient MS-5, dose 20 mg, TCL 43","16,726 ± 1,121"
same,proliferative response of NBI-5788-reactive TCL to antigen,"[3]; patient MS-6, dose 10 mg, TCL 22","43,085 ± 1,376"
same,proliferative response of NBI-5788-reactive TCL to antigen,"[3]; patient MS-6, dose 10 mg, TCL 38","24,195 ± 613"
same,proliferative response of NBI-5788-reactive TCL to antigen,"[3]; patient MS-7, dose 5 mg, TCL 12","17,749 ± 1,784"
same,proliferative response of NBI-5788-reactive TCL to antigen,"[3]; patient MS-7, dose 5 mg, TCL 28","3,505 ± 1,446"
same,proliferative response of MBP-reactive TCL to antigen,"[3]; patient MS-7, dose 5 mg, TCL 46","1,298 ± 113"
same,proliferative response of MBP-reactive TCL to antigen,"[3]; patient MS-8, Placebo, TCL 26",944 ± 259
same,proliferative response of MBP-reactive TCL to antigen,"[3]; patient MS-8, Placebo, TCL 28","1,437 ± 97"
same,proliferative response of MBP-reactive TCL to antigen,"[3]; patient MS-8, Placebo, TCL 38","16,931 ± 1938"
same,proliferative response of MBP-reactive TCL to antigen,"[3]; patient MS-8, Pretreat., TCL 22","2,636 ± 270"
same,proliferative response of MBP-reactive TCL to antigen,"[3]; patient MS-8, Pretreat., TCL 31",936 ± 123
same,proliferative response of MBP-reactive TCL to antigen,"[3]; patient MS-8, Pretreat., TCL 47","3,448 ± 1,980"
